{
  "source": "the SangsterLogP compilation",
  "assay": "method code SF-HPLC, from DOI: 10.1016/b978-0-08-029222-9.50040-8",
  "data": [
    {"smiles": "CN(SN(C)C(=O)c1ccc(Cl)cc1)C(=O)Oc1cccc2c1OC(C)(C)C2", "values": [
      {"measurement": "logP", "value": 4}
    ]},
    {"smiles": "CCCC(=O)N(C)SN(C)C(=O)ON=C(C)SC", "values": [
      {"measurement": "logP", "value": 2.2}
    ]},
    {"smiles": "CN(SN(C)C(=O)c1ccc(Cl)cc1Cl)C(=O)Oc1cccc2c1OC(C)(C)C2", "values": [
      {"measurement": "logP", "value": 4.9}
    ]},
    {"smiles": "CC(C)C(=O)N(C)SN(C)C(=O)Oc1cccc2c1OC(C)(C)C2", "values": [
      {"measurement": "logP", "value": 3.6}
    ]},
    {"smiles": "CCCCCCCCCCOC(=O)N(C)SN(C)C(=O)ON=C(C)SC", "values": [
      {"measurement": "logP", "value": 6.2}
    ]},
    {"smiles": "CSC(C)=NOC(=O)N(C)SN(C)C(=O)OC1CCCCC1", "values": [
      {"measurement": "logP", "value": 3.6}
    ]},
    {"smiles": "CCCCN(SN(C)C(=O)Oc1cccc2c1OC(C)(C)C2)C(=O)OC", "values": [
      {"measurement": "logP", "value": 4.6}
    ]},
    {"smiles": "CSC(C)=NOC(=O)N(C)SN(C)C(=O)c1ccc(Cl)cc1", "values": [
      {"measurement": "logP", "value": 2.6}
    ]},
    {"smiles": "CSC(C)=NOC(=O)N(C)SN(C)C(=O)c1ccccc1Cl", "values": [
      {"measurement": "logP", "value": 2.5}
    ]},
    {"smiles": "CCOC(=O)N(C)SN(C)C(=O)Oc1cccc2c1OC(C)(C)C2", "values": [
      {"measurement": "logP", "value": 3.5}
    ]},
    {"smiles": "CCCCN(SN(C)C(=O)ON=C(C)SC)C(C)=O", "values": [
      {"measurement": "logP", "value": 2.4}
    ]},
    {"smiles": "CS/C(C)=N\\OC(=O)N(C)SN(C)C(=O)c1ccc(C)cc1", "values": [
      {"measurement": "logP", "value": 2.5}
    ]},
    {"smiles": "CCCC(=O)N(C)SN(C)C(=O)Oc1cccc2c1OC(C)(C)C2", "values": [
      {"measurement": "logP", "value": 3.8}
    ]},
    {"smiles": "CSC(C)=NOC(=O)N(C)SN(C)C(=O)ON=C(C)SC", "values": [
      {"measurement": "logP", "value": 1.7}
    ]},
    {"smiles": "CSC(C)=NOC(=O)N(C)SN(C)C(=O)c1cccc(Cl)c1", "values": [
      {"measurement": "logP", "value": 2.7}
    ]},
    {"smiles": "CSC(C)=NOC(=O)N(C)SN(C)C(=O)c1c(Cl)cccc1Cl", "values": [
      {"measurement": "logP", "value": 2.6}
    ]},
    {"smiles": "CN(SN(C)C(=O)c1ccccc1)C(=O)Oc1cccc2c1OC(C)(C)C2", "values": [
      {"measurement": "logP", "value": 3.5}
    ]},
    {"smiles": "CCN(CC)C(=O)N(C)SN(C)C(=O)ON=C(C)SC", "values": [
      {"measurement": "logP", "value": 3.2}
    ]},
    {"smiles": "CSC(C)=NOC(=O)N(C)SN(C)C(=O)c1ccccc1", "values": [
      {"measurement": "logP", "value": 2.2}
    ]},
    {"smiles": "CCC(=O)N(C)SN(C)C(=O)Oc1cccc2c1OC(C)(C)C2", "values": [
      {"measurement": "logP", "value": 3.2}
    ]},
    {"smiles": "CCCCCCN(SN(C)C(=O)ON=C(C)SC)C(=O)N(C)C", "values": [
      {"measurement": "logP", "value": 3.3}
    ]},
    {"smiles": "CSC(C)=NOC(=O)N(C)SN(C)C(=O)C(C)C", "values": [
      {"measurement": "logP", "value": 2.2}
    ]},
    {"smiles": "CCCCCCC(=O)N(SN(C)C(=O)ON=C(C)SC)c1ccccc1", "values": [
      {"measurement": "logP", "value": 4.2}
    ]},
    {"smiles": "COC(=O)N(C)SN(C)C(=O)O/N=C(\\C)SC", "values": [
      {"measurement": "logP", "value": 1.4}
    ]},
    {"smiles": "CSC(C)=NOC(=O)N(C)SN(C)C(=O)N(C(C)C)C(C)C", "values": [
      {"measurement": "logP", "value": 2.6}
    ]},
    {"smiles": "CN(SN(C)C(=O)OC(C)(C)C)C(=O)Oc1cccc2c1OC(C)(C)C2", "values": [
      {"measurement": "logP", "value": 4.3}
    ]},
    {"smiles": "CC(=O)N(C)SN(C)C(=O)Oc1cccc2c1OC(C)(C)C2", "values": [
      {"measurement": "logP", "value": 2.7}
    ]},
    {"smiles": "CSC(C)=NOC(=O)N(C)SN(C)C(=O)C1CC1", "values": [
      {"measurement": "logP", "value": 1.7}
    ]},
    {"smiles": "CCCCCCOC(=O)N(C)SN(C)C(=O)ON=C(C)SC", "values": [
      {"measurement": "logP", "value": 4.2}
    ]},
    {"smiles": "CN(SN(C)C(=O)c1ccccc1Cl)C(=O)Oc1cccc2c1OC(C)(C)C2", "values": [
      {"measurement": "logP", "value": 4.1}
    ]},
    {"smiles": "CCCCN(SN(C)C(=O)ON=C(C)SC)C(=O)c1ccccc1", "values": [
      {"measurement": "logP", "value": 3.4}
    ]},
    {"smiles": "CS/C(C)=N\\OC(=O)N(C)SN(C)C(C)=O", "values": [
      {"measurement": "logP", "value": 1.3}
    ]},
    {"smiles": "CNC(=O)ON=C(C)SC", "values": [
      {"measurement": "logP", "value": 0.6}
    ]},
    {"smiles": "CCC(=O)N(C)SN(C)C(=O)ON=C(C)SC", "values": [
      {"measurement": "logP", "value": 1.6}
    ]},
    {"smiles": "CSC(C)=NOC(=O)N(C)SN(C)C(=O)c1cccc(C(F)(F)F)c1", "values": [
      {"measurement": "logP", "value": 2.5}
    ]},
    {"smiles": "COC(=O)N(C)SN(C)C(=O)Oc1cccc2c1OC(C)(C)C2", "values": [
      {"measurement": "logP", "value": 3}
    ]},
    {"smiles": "CSC(C)=NOC(=O)N(C)SN(C)C(=O)c1ccc(Cl)cc1Cl", "values": [
      {"measurement": "logP", "value": 3.2}
    ]},
    {"smiles": "CCCCOC(=O)N(CCCC)SN(C)C(=O)ON=C(C)SC", "values": [
      {"measurement": "logP", "value": 4.2}
    ]},
    {"smiles": "CCCCN(SN(C)C(=O)O/N=C(\\C)SC)C(=O)OC", "values": [
      {"measurement": "logP", "value": 2.5}
    ]},
    {"smiles": "CSC(C)=NOC(=O)N(C)SN(C(=O)c1ccc(C)cc1)C(C)C", "values": [
      {"measurement": "logP", "value": 3.4}
    ]}
  ]
}
